Measured values published in ChEMBL document CHEMBL1649448, “Atorvastatin is a promising partner for antimalarial drugs in treatment of Plasmodium falciparum malaria” (Antimicrob Agents Chemother, 2009).

Assays:
Type in all cases: functional, organism-based
Plasmodium falciparum [1] = test: Antimalarial activity against Plasmodium falciparum IMT 10336 assessed as incorporation of [3H]hypoxanthine after 48 hrs by scintillation counter
Plasmodium falciparum [2] = test: Antimalarial activity against Plasmodium falciparum IMT K2 assessed as incorporation of [3H]hypoxanthine after 48 hrs by scintillation counter
Plasmodium falciparum [3] = test: Antimalarial activity against Plasmodium falciparum D6 assessed as incorporation of [3H]hypoxanthine after 48 hrs by scintillation counter
Plasmodium falciparum [4] = test: Antimalarial activity against Plasmodium falciparum IMT 8425 assessed as incorporation of [3H]hypoxanthine after 48 hrs by scintillation counter
Plasmodium falciparum [5] = test: Antimalarial activity against Plasmodium falciparum HB3 assessed as incorporation of [3H]hypoxanthine after 48 hrs by scintillation counter
Plasmodium falciparum [6] = test: Antimalarial activity against Plasmodium falciparum IMT 10500 assessed as incorporation of [3H]hypoxanthine after 48 hrs by scintillation counter
Plasmodium falciparum [7] = test: Antimalarial activity against Plasmodium falciparum FCR3 assessed as incorporation of [3H]hypoxanthine after 48 hrs by scintillation counter
Plasmodium falciparum [8] = test: Antimalarial activity against Plasmodium falciparum FCM29 assessed as incorporation of [3H]hypoxanthine after 48 hrs by scintillation counter
Plasmodium falciparum [9] = test: Antimalarial activity against Plasmodium falciparum IMT Bres assessed as incorporation of [3H]hypoxanthine after 48 hrs by scintillation counter
Plasmodium falciparum [10] = test: Antimalarial activity against Plasmodium falciparum W2 assessed as incorporation of [3H]hypoxanthine after 48 hrs by scintillation counter
Plasmodium falciparum [11] = test: Antimalarial activity against Plasmodium falciparum IMT A4 assessed as incorporation of [3H]hypoxanthine after 48 hrs by scintillation counter
Plasmodium falciparum [12] = test: Antimalarial activity against Plasmodium falciparum IMT Vol assessed as incorporation of [3H]hypoxanthine after 48 hrs by scintillation counter
Plasmodium falciparum [13] = test: Antimalarial activity against Plasmodium falciparum IMT 16332 assessed as incorporation of [3H]hypoxanthine after 48 hrs by scintillation counter
Plasmodium falciparum [14] = test: Antimalarial activity against Plasmodium falciparum IMT 9881 assessed as incorporation of [3H]hypoxanthine after 48 hrs by scintillation counter
Plasmodium falciparum [15] = test: Antimalarial activity against Plasmodium falciparum IMT K4 assessed as incorporation of [3H]hypoxanthine after 48 hrs by scintillation counter
Plasmodium falciparum [16] = test: Antimalarial activity against Plasmodium falciparum IMT 31 assessed as incorporation of [3H]hypoxanthine after 48 hrs by scintillation counter
Plasmodium falciparum [17] = test: Antimalarial activity against Plasmodium falciparum 106/1 assessed as incorporation of [3H]hypoxanthine after 48 hrs by scintillation counter
Plasmodium falciparum [18] = test: Antimalarial activity against Plasmodium falciparum IMT Guy assessed as incorporation of [3H]hypoxanthine after 48 hrs by scintillation counter
Plasmodium falciparum [19] = test: Antimalarial activity against Plasmodium falciparum IMT K14 assessed as incorporation of [3H]hypoxanthine after 48 hrs by scintillation counter
Plasmodium falciparum [20] = test: Antimalarial activity against Plasmodium falciparum PA assessed as incorporation of [3H]hypoxanthine after 48 hrs by scintillation counter
Plasmodium falciparum [21] = test: Antimalarial activity against Plasmodium falciparum IMT L1 assessed as incorporation of [3H]hypoxanthine after 48 hrs by scintillation counter

SMILES | IC50 (Plasmodium falciparum [1]) [nM] | IC50 (Plasmodium falciparum [2]) [nM] | IC50 (Plasmodium falciparum [3]) [nM] | IC50 (Plasmodium falciparum [4]) [nM] | IC50 (Plasmodium falciparum [5]) [nM] | IC50 (Plasmodium falciparum [6]) [nM] | IC50 (Plasmodium falciparum [7]) [nM] | IC50 (Plasmodium falciparum [8]) [nM] | IC50 (Plasmodium falciparum [9]) [nM] | IC50 (Plasmodium falciparum [10]) [nM] | IC50 (Plasmodium falciparum [11]) [nM] | IC50 (Plasmodium falciparum [12]) [nM] | IC50 (Plasmodium falciparum [13]) [nM] | IC50 (Plasmodium falciparum [14]) [nM] | IC50 (Plasmodium falciparum [15]) [nM] | IC50 (Plasmodium falciparum [16]) [nM] | IC50 (Plasmodium falciparum [17]) [nM] | IC50 (Plasmodium falciparum [18]) [nM] | IC50 (Plasmodium falciparum [19]) [nM] | IC50 (Plasmodium falciparum [20]) [nM] | further results
C[C@H]1[C@@H](O)O[C@@H]2O[C@@]3(C)CC[C@H]4[C@H](C)CC[C@@H]1[C@@]24OO3 [ARTENIMOL] | 0.9 | 0.9 | 0.9 | 0.9 | 0.9 | 0.9 | 0.9 | 0.9 | 0.9 | 0.9 | 0.9 | 0.9 | 0.9 | 0.9 | 0.9 | 0.9 | 0.9 | 0.9 | 0.9 | 0.9 | IC50 (Plasmodium falciparum [21]): 0.9 nM
C=C[C@H]1CN2CC[C@H]1C[C@H]2[C@H](O)c1ccnc2ccc(OC)cc12 [QUININE] | – | 48 | – | – | – | – | – | – | – | – | – | – | – | – | – | – | – | – | – | – | –
CCNCc1cc(Nc2ccnc3cc(Cl)ccc23)ccc1O [DESETHYL AMODIAQUINE] | 23 | 23 | 23 | 23 | 23 | 23 | 23 | 23 | 23 | 23 | 23 | 23 | 23 | 23 | 23 | 23 | 23 | 23 | 23 | 23 | IC50 (Plasmodium falciparum [21]): 23 nM
